Measurements as given in US12338203B2 (TAISHO PHARMACEUTICAL CO., LTD., priority 2019, dated 2025).

Each compound was assayed against T1, human LPAR1 (Homo sapiens, UniProt Q92633) (assay: Test Example 1: antagonism against response of LPA-induced increase in intracellular Ca2+ concentration in RH7777 cells stably expressing human LPAR1). Settings: RH7777 cells stably expressing human LPAR1; Fluo-4 fluorescence, FDSS6000; read-out: IC50 value (concentration producing 50% antagonism against response of LPA-induced increase in intracellular Ca2+ concentration) (converted).
T1 construct: expressed in transfected cells
T1 sequence (Q92633 whole entry): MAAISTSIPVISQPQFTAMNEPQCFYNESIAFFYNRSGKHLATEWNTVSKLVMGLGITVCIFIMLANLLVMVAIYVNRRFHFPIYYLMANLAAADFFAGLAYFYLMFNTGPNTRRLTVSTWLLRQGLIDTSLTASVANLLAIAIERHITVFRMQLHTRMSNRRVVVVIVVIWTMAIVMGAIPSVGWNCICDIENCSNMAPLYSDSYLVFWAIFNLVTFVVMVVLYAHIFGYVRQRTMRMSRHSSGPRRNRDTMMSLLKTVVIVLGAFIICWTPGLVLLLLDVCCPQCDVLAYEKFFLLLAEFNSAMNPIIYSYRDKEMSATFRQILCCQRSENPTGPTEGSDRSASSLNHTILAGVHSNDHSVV
Assay type: cell-based
How it was run: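 RH7777 cells stably transfected with human LPAR1 were preincubated with test compound 30 min at 37 °C in HBSS/20 mM HEPES/probenecid/0.05% BSA buffer, pH 7.4, then LPA-stimulated.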
`CCOc1cc([C@@H](C)N(CCOCc2ccccc2)C(=O)NC2(C(=O)O)CCOCC2)cc(OCC)c1C(C)=O` [Example 4-110] was tested, and the IC50 was 4.31 nM.
For `CCOc1cc([C@@H](C)N(CCO[C@@H](C)c2ccccc2)C(=O)NC2(C(=O)O)CC2)cc(OCC)c1C(C)=O` [Example 4-111], the IC50 was 3.07 nM.
For `CCOc1cc([C@@H](C)N(CCO[C@@H](C)c2ccccc2)C(=O)NC2(C(=O)O)CC2)cc(OCC)c1C1CC1` [Example 4-112], the IC50 was 1.49 nM.
In the case of `CCOc1c(C(C)=O)ccc([C@@H](C)N(CCO[C@@H](C)c2ccccc2)C(=O)NC2(C(=O)O)CC2)c1C` [Example 4-113], the IC50 is reported as 8.95 nM.
`CCOc1cc([C@@H](C)N(CCO[C@@H](C)c2ccccc2)C(=O)NC2(C(=O)O)CCC2)cc(OCC)c1C(C)=O` [Example 4-114] was tested, and the IC50 was 2.54 nM.
`CCOc1cc([C@@H](C)N(CCO[C@@H](C)c2ccccc2)C(=O)NC2(C(=O)O)CCC2)cc(OCC)c1C1CC1` [Example 4-115] was tested, and the IC50 was 1.23 nM.
`CCOc1c(C(C)=O)ccc([C@@H](C)N(CCO[C@@H](C)c2ccccc2)C(=O)NC2(C(=O)O)CCC2)c1C` [Example 4-116] showed an IC50 of 3.91 nM.
With `CCOc1cc([C@@H](C)N(CCO[C@@H](C)c2ccccc2)C(=O)NC2(C(=O)O)CC(F)(F)C2)cc(OCC)c1C(C)=O` [Example 4-117] the IC50 was 2.52 nM.
In the case of `CCOc1cc([C@@H](C)N(CCO[C@@H](C)c2ccccc2)C(=O)NC2(C(=O)O)CC(F)(F)C2)cc(OCC)c1C1CC1` [Example 4-118], the IC50 is reported as 0.948 nM.
`CCOc1c(C(C)=O)ccc([C@@H](C)N(CCO[C@@H](C)c2ccccc2)C(=O)NC2(C(=O)O)CC(F)(F)C2)c1C` [Example 4-119] showed an IC50 of 3.13 nM.
`CCOc1cc([C@@H](C)N(CCO[C@@H](C)c2ccccc2)C(=O)N[C@H]2C[C@@](C)(C(=O)O)C2)cc(OCC)c1C(C)=O` [Example 4-120] showed an IC50 of 15.2 nM.
`CCOc1cc([C@@H](C)N(CCO[C@@H](C)c2ccccc2)C(=O)N[C@]2(C(=O)O)C[C@@H](OC)C2)cc(OCC)c1C(C)=O` [Example 4-121] showed an IC50 of 3.35 nM.
`CCOc1cc([C@@H](C)N(CCO[C@@H](C)c2ccccc2)C(=O)N[C@]2(C(=O)O)C[C@H](OC)C2)cc(OCC)c1C(C)=O` [Example 4-122] gave an IC50 of 4.53 nM.
Compound `CCOc1cc([C@@H](C)N(CCO[C@@H](C)c2ccccc2)C(=O)NC2(C(=O)O)CC(OC)C2)cc(OCC)c1C(C)O` (stereo partly drawn) [Example 4-123] has an IC50 of 7.82 nM.
`CCOc1cc([C@@H](C)N(CCO[C@@H](C)c2ccccc2)C(=O)NC2(C(=O)O)CC(OC)C2)cc(OCC)c1C(C)O` (stereo partly drawn) [Example 4-124] showed an IC50 of 5.44 nM.
`CCOc1cc([C@@H](C)N(CCO[C@@H](C)c2ccccc2)C(=O)NC2(C(=O)O)CC(OC)C2)cc(OCC)c1C(C)O` (stereo partly drawn) [Example 4-125] was tested, and the IC50 was 7.11 nM.
In the case of `CCOc1cc([C@@H](C)N(CCO[C@@H](C)c2ccccc2)C(=O)NC2(C(=O)O)CC(OC)C2)cc(OCC)c1C(C)O` (stereo partly drawn) [Example 4-126], the IC50 is reported as 3.91 nM.
`CCOc1cc([C@@H](C)N(CCO[C@@H](C)c2ccccc2)C(=O)NC2(C(=O)O)CC(OC)C2)cc(OCC)c1C1(O)CC1` (stereo partly drawn) [Example 4-127] was tested, and the IC50 was 21.3 nM.
In the case of `CCOc1cc([C@@H](C)N(CCO[C@@H](C)c2ccccc2)C(=O)N[C@]2(C(=O)O)C[C@@H](OC)C2)cc(OCC)c1C1CC1` [Example 4-128], the IC50 is reported as 1.08 nM.
`CCOc1cc([C@@H](C)N(CCO[C@@H](C)c2ccccc2)C(=O)NC2(C(=O)O)CC(OC)C2)cc(OCC)c1C1CC1` (stereo partly drawn) [Example 4-129, cis-1-[([(1R)-1-(4-cyclopropyl-3,5-diethoxyphenyl)ethyl]{2-[(1S)-1-phenylethoxy]ethyl}carbamoyl)amino]-3-methoxycyclobutane-1-carboxylic acid] was tested, and the IC50 was 1.03 nM.
For `CCOc1c(C(C)=O)ccc([C@@H](C)N(CCO[C@@H](C)c2ccccc2)C(=O)NC2(C(=O)O)CC(OC)C2)c1C` (stereo partly drawn) [Example 4-130], the IC50 was 6.66 nM.
`CCOc1c(C(C)=O)ccc([C@@H](C)N(CCO[C@@H](C)c2ccccc2)C(=O)NC2(C(=O)O)CC(OC)C2)c1C` (stereo partly drawn) [Example 4-131] was tested, and the IC50 was 10.3 nM.
`CCOc1cc([C@@H](C)N(CCO[C@@H](C)c2ccccc2)C(=O)NC2(C(=O)O)CC(OCC)C2)cc(OCC)c1C(C)=O` (stereo partly drawn) [Example 4-132] was tested, and the IC50 was 5.62 nM.
With `CCOc1cc(C(C)N(CCO[C@@H](C)c2ccccc2)C(=O)N[C@]2(C(=O)O)C[C@H](OCC)C2)cc(OCC)c1C(C)O` (stereo partly drawn) [Example 4-133] the IC50 was 5.7 nM.
In the case of `CCOc1cc([C@@H](C)N(CCO[C@@H](C)c2ccccc2)C(=O)N[C@]2(C(=O)O)C[C@H](OCC)C2)cc(OCC)c1C(C)O` (stereo partly drawn) [Example 4-134], the IC50 is reported as 3.92 nM.
`CCOc1cc([C@@H](C)N(CCO[C@@H](C)c2ccccc2)C(=O)N[C@]2(C(=O)O)C[C@@H](OCC)C2)cc(OCC)c1C(C)O` (stereo partly drawn) [Example 4-135] showed an IC50 of 5.33 nM.
`CCOc1cc([C@@H](C)N(CCO[C@@H](C)c2ccccc2)C(=O)N[C@]2(C(=O)O)C[C@@H](OCC)C2)cc(OCC)c1C(C)O` (stereo partly drawn) [Example 4-136] was tested, and the IC50 was 3.43 nM.
For `CCOc1cc([C@@H](C)N(CCO[C@@H](C)c2ccccc2)C(=O)N[C@]2(C(=O)O)C[C@@H](OCC)C2)cc(OCC)c1C1(O)CC1` [Example 4-137], the IC50 was 21.9 nM.
With `CCOc1cc([C@@H](C)N(CCO[C@@H](C)c2ccccc2)C(=O)N[C@]2(C(=O)O)C[C@@H](OCC)C2)cc(OCC)c1C1CC1` [Example 4-138, trans-1-[([(1R)-1-(4-cyclopropyl-3,5-diethoxyphenyl)ethyl]{2-[(1S)-1-phenylethoxy]ethyl}carbamoyl)amino]-3-ethoxycyclobutane-1-carboxylic acid] the IC50 was 2.91 nM.
`CCOc1cc([C@@H](C)N(CCO[C@@H](C)c2ccccc2)C(=O)N[C@]2(C(=O)O)C[C@@H](OCC)C2)cc(OCC)c1C1CC1` [Example 4-139, cis-1-[([(1R)-1-(4-cyclopropyl-3,5-diethoxyphenyl)ethyl]{2-[(1S)-1-phenylethoxy]ethyl}carbamoyl)amino]-3-ethoxycyclobutane-1-carboxylic acid] showed an IC50 of 1.32 nM.
In the case of `CCOc1c(C(C)=O)ccc([C@@H](C)N(CCO[C@@H](C)c2ccccc2)C(=O)N[C@]2(C(=O)O)C[C@@H](OCC)C2)c1C` [Example 4-140], the IC50 is reported as 5.67 nM.
With `CCOc1c(C(C)=O)ccc([C@@H](C)N(CCO[C@@H](C)c2ccccc2)C(=O)N[C@]2(C(=O)O)C[C@H](OCC)C2)c1C` [Example 4-141] the IC50 was 7.62 nM.
With `CCOc1cc([C@@H](C)N(CCO[C@@H](C)c2ccccc2)C(=O)NC2(C(=O)O)CCOCC2)cc(OCC)c1C(C)=O` [Example 4-142] the IC50 was 5.9 nM.
Compound `CCOc1c(C(C)=O)ccc([C@@H](C)N(CCO[C@H](C)c2ccccc2)C(=O)NC2(C(=O)O)CC2)c1C` [Example 4-147] has an IC50 of 11.6 nM.
`CCOc1c(C(C)=O)ccc([C@@H](C)N(CCO[C@H](C)c2ccccc2)C(=O)NC2(C(=O)O)CCC2)c1C` [Example 4-148] gave an IC50 of 3.22 nM.
With `CCOc1cc([C@@H](C)N(CCO[C@H](C)c2ccccc2)C(=O)NC2(C(=O)O)CC(F)(F)C2)cc(OCC)c1C(C)=O` [Example 4-149] the IC50 was 3.4 nM.
With `CCOc1cc([C@@H](C)N(CCO[C@H](C)c2ccccc2)C(=O)NC2(C(=O)O)CC(F)(F)C2)cc(OCC)c1C1CC1` [Example 4-150] the IC50 was 1.55 nM.
In the case of `CCOc1c(C(C)=O)ccc([C@@H](C)N(CCO[C@H](C)c2ccccc2)C(=O)NC2(C(=O)O)CC(F)(F)C2)c1C` [Example 4-151], the IC50 is reported as 2.62 nM.
`CCOc1c(C(C)=O)ccc([C@@H](C)N(CCO[C@H](C)c2ccccc2)C(=O)NC2(C(=O)O)CC(OC)C2)c1C` (stereo partly drawn) [Example 4-154] gave an IC50 of 3.68 nM.
